# Experiments:
# [1] = system: promoters lacking BS2 sites or containing Ets-specific M3 sites; experiment: Transactivation of reporters lacking BS2 sites or containing M3 sites in 293T cells; assay type: cell-based, human
# Excerpt: (§1) An XbaI-EcoRV fragment containing the entire DMP1 coding sequence is subcloned by blunt end ligation into a SpeI-XbaI fragment of the Rc/RSV vector (Invitrogen, La Jolla Calif.) to enable DMP1 expression in mammalian cells. 6×concatamerized BS1, 8×concatamerized, BS2, or 7×concatamerized M3 oligonucleotides (FIG. 5B) are inserted into the XhoI-SmaI sites of pGL2 (Pfornega) 5′ to a minimal simian virus 40 (SV40) early promoter driving firefly luciferase gene expression. The latter “reporter” plasmid (1 μg) together with increasing amounts of pRc/RSV-DMP1 expression plasmid compensated by decreasing quantities of control pRc/RSV DNA (total of both=2.5 μg) were transfected into 293T cells (1.5×10^6 cells per 60 mm diameter culture dish) by calcium phosphate precipitation (7). Two days later, cells were harvested, washed three times with PBS, and lysed in 1 ml of 25 mM glycylglycine (Sigma), pH 7.8, 15 mM MgSO4, 4 mM EDTA, 1 mM DTT, and 1% Triton X-100. After clearing by centrifugation, 50 μl aliquots were assayed diluted to 350 μl using 15 mM potassium phosphate buffer, pH 7.8, containing 15 mM MgSO4, 4 mM EGTA, 2 mM ATP, 1 mM DTT, and 67 uM luciferin (Sigma). Total light emission was measured for duplicate samples during the initial 20 seconds after luciferin injection with an Optocomp I luminometer (MGM Instruments, Hamden Conn.). […]
# [2] = system: BS1-driven reporter; experiment: Transactivation of BS1-driven luciferase reporter in 293T cells; assay type: cell-based, human
# Excerpt: as §1
# [3] = system: p19ARF; experiment: Induction of endogenous p19ARF protein in retrovirus-infected MEFs; assay type: cell-based, mouse
# Experimental: Virus production and infection. Human kidney 293T cells were transfected with a helper ecotropic retrovirus plasmid defective in psi-2 packaging sequences, together with pSRα vectors containing murine DMP1, human c-Myc, human E2F-1, or human Ets1 cDNAs [Zindy, et al., Genes Dev. 12:2424-2433 (1998); Inoue and Sherr, J. Biol. Chem. 273:29188-29194 (1998)]. Viruses were harvested every 6 hours 24-72 hours after transfection, filtered and stored at 4° C. until used for infection [Zindy, et al., Genes Dev. 12:2424-2433 (1998)]. In order to construct a retroviral vector containing DMP1 linked to a mutated tamoxifen-responsive element of the estrogen receptor (DMP1-ER™), a 3′ 0.3 kb EcoNI DNA fragment of murine DMP1 cDNA was amplified by PCR using
# RNA and protein expression. Quantitative RT-PCRs employed specific primers for murine ARF exon 1β (30 cycles) and for β-actin (20 cycles) used as a control [Zindy et al., Oncogene 15:203-211 (1997)]. […]
# Based on the above observations, it was determined as to whether introduction of DMP1 would induce synthesis of the endogenous ARF protein in normal diploid fibroblast strains. […] Although the blot was normalized for protein input, the levels of p19^ARF induced by DMP1 were calculated to be 2-fold higher than those induced by Myc, because fewer cells were productively infected with the DMP1 virus in this experiment (see FIG. 15A).
# [4] = system: BS2-driven reporter plasmid; experiment: Transactivation of BS2-driven luciferase reporter in 293T cells; assay type: cell-based, human; conditions: 1 μg BS2-driven reporter
# Excerpt: as §1
substance,measurement,setting,value
"DMP1: murine cyclin D-associated myb-like transcription factor, 761 amino acids, SEQ ID NO:1",transactivation,[1],not observed
same,activation of the BS1-driven reporter,[2],7 fold
same,levels of p19ARF induced relative to those induced by Myc,[3]; corrected for fraction of productively infected cells,2 fold
same,ARF protein synthesis,"[3]; early passage MEFs, retroviral infection",induced ARF protein synthesis
same,transactivation of luciferase activity relative to reporter plasmid alone,[4],~20 fold

# — patent US6673902B2, “Cyclin D binding factor, and uses thereof” (St. Jude Children's Research Hospital, priority 1996, dated 2004)
